Results reported in ChEMBL document CHEMBL4052635, “Discovery of novel antitumor nitric oxide-donating β-elemene hybrids through inhibiting the PI3K/Akt pathway” (Eur J Med Chem, 2017).
Values belong to the compound of their own block, whether it stands above or below them. Active and inactive are the calls of the source. The calls are words filed in the database; no cut-off is given here.

Assays:
[1] = Antiproliferative activity against human U87 cells after 72 hrs by MTT assay; format: functional, cell-based, U-87MG ATCC; conditions: U-87 MG
[2] = test system: HeLa; assay: Antiproliferative activity against human HeLa cells after 72 hrs by MTT assay; format: functional, cell-based
[3] = test system: SGC-7901; assay: Antiproliferative activity against human SGC7901 cells after 72 hrs by MTT assay; format: functional, cell-based; conditions: SGC-7901, 72 h
[4] = Induction of NO production at 100 uM in presence of 5.0 mM L-cysteine incubated for 120 mins measured every 15 mins by Griess assay
[5] = Cell cycle arrest in human U87 cells assessed as accumulation at G1 phase at 0.5 nM after 72 hrs by propidium iodide staining based flow cytometry (reference value: 54.11%); format: functional, U-87MG ATCC
[6] = Cell cycle arrest in human U87 cells assessed as accumulation at G1 phase at 1 nM after 72 hrs by propidium iodide staining based flow cytometry (reference value: 54.11%); format: functional, U-87MG ATCC
[7] = test system: L02; assay: Cytotoxicity against human LO2 cells assessed as reduction in cell viability after 72 hrs by MTT assay; format: cell-based; conditions: L02, 72 h
[8] = Cell cycle arrest in human U87 cells assessed as accumulation at G2 phase at 1 nM after 72 hrs by propidium iodide staining based flow cytometry (reference value: 18.86%); format: functional, U-87MG ATCC
[9] = test system: H22; assay: Antitumor activity against […] cells xenografted in ICR mouse assessed as tumor growth inhibition at 30 mg/kg, iv qd for 3 weeks relative to control; format: functional; conditions: 504 h, read-out: TGI
[10] = Cell cycle arrest in human U87 cells assessed as accumulation at G1 phase at 2 nM after 72 hrs by propidium iodide staining based flow cytometry (reference value: 54.11%); format: functional, U-87MG ATCC
[11] = species on record: Homo sapiens; assay: Inhibition of PI3K/Akt activation in human U87 cells assessed as increase in pro-apoptotic Bax protein expression after 72 hrs by Western blot method; format: cell-based
[12] = Cell cycle arrest in human U87 cells assessed as accumulation at S phase at 0.5 nM after 72 hrs by propidium iodide staining based flow cytometry (reference value: 27.03%); format: functional, U-87MG ATCC
[13] = Induction of apoptosis in human U87 cells assessed as necrotic cells at 0.5 nM measured after 72 hrs by Annexin V-APC/7-AAD staining based flow cytometry (reference value: 0.44%); format: functional, U-87MG ATCC
[14] = Cell cycle arrest in human U87 cells assessed as accumulation at S phase at 1 nM after 72 hrs by propidium iodide staining based flow cytometry (reference value: 27.03%); format: functional, U-87MG ATCC
[15] = Induction of apoptosis in human U87 cells assessed as early apoptotic cells at 2 nM measured after 72 hrs by Annexin V-APC/7-AAD staining based flow cytometry (reference value: 3.82%); format: functional, U-87MG ATCC
[16] = Cell cycle arrest in human U87 cells assessed as accumulation at S phase at 2 nM after 72 hrs by propidium iodide staining based flow cytometry (reference value: 27.03%); format: functional, U-87MG ATCC
[17] = test system: Mus musculus; assay: Toxicity in ICR mouse xenografted with […] cells assessed as body weight at 30 mg/kg, iv administered qd for 3 weeks (reference value: 22.9 +/- 0.4 g); format: organism-based; conditions: in vivo, 504 h
[18] = species on record: Homo sapiens; assay: Inhibition of PI3K/Akt activation in human U87 cells assessed as increase in caspase-3 level after 72 hrs by Western blot method; format: cell-based
[19] = test system: Mus musculus; assay: Toxicity in ICR mouse xenografted with […] cells assessed as body weight at 60 mg/kg, iv administered qd for 3 weeks (reference value: 22.9 +/- 0.4 g); format: organism-based; conditions: in vivo, 504 h
[20] = Cell cycle arrest in human U87 cells assessed as accumulation at G2 phase at 0.5 nM after 72 hrs by propidium iodide staining based flow cytometry (reference value: 18.86%); format: functional, U-87MG ATCC
[21] = biological target: RAC-alpha serine/threonine-protein kinase (Homo sapiens) (UniProt P31749); assay: Inhibition of Akt phosphorylation in human U87 cells after 72 hrs by Western blot method; format: cell-based
[22] = Induction of apoptosis in human U87 cells assessed as early apoptotic cells at 1 nM measured after 72 hrs by Annexin V-APC/7-AAD staining based flow cytometry (reference value: 3.82%); format: functional, U-87MG ATCC
[23] = Cell cycle arrest in human U87 cells assessed as accumulation at G2 phase at 2 nM after 72 hrs by propidium iodide staining based flow cytometry (reference value: 18.86%); format: functional, U-87MG ATCC
[24] = Induction of apoptosis in human U87 cells assessed as viable cells at 0.5 nM measured after 72 hrs by Annexin V-APC/7-AAD staining based flow cytometry (reference value: 92.71%); format: functional, U-87MG ATCC; conditions: U-87 MG, read-out: Activity
[25] = Induction of apoptosis in human U87 cells assessed as late apoptotic cells at 0.5 nM measured after 72 hrs by Annexin V-APC/7-AAD staining based flow cytometry (reference value: 3.02%); format: functional, U-87MG ATCC
[26] = Induction of apoptosis in human U87 cells assessed as viable cells at 1 nM measured after 72 hrs by Annexin V-APC/7-AAD staining based flow cytometry (reference value: 92.71%); format: functional, U-87MG ATCC; conditions: U-87 MG, read-out: Activity
[27] = Induction of apoptosis in human U87 cells assessed as early apoptotic cells at 0.5 nM measured after 72 hrs by Annexin V-APC/7-AAD staining based flow cytometry (reference value: 3.82%); format: functional, U-87MG ATCC
[28] = Induction of apoptosis in human U87 cells assessed as viable cells at 2 nM measured after 72 hrs by Annexin V-APC/7-AAD staining based flow cytometry (reference value: 92.71%); format: functional, U-87MG ATCC; conditions: U-87 MG, read-out: Activity
[29] = Induction of apoptosis in human U87 cells assessed as late apoptotic cells at 2 nM measured after 72 hrs by Annexin V-APC/7-AAD staining based flow cytometry (reference value: 3.02%); format: functional, U-87MG ATCC
[30] = test system: H22; assay: Antitumor activity against […] cells xenografted in iv dosed ICR mouse assessed as tumor growth inhibition administered qd for 3 weeks; format: functional, organism-based
[31] = test system: U-87MG ATCC; assay: Antiproliferative activity against human U87 cells after 72 hrs in presence of NO scavenger hemoglobin/PTIO by MTT assay; format: functional, cell-based
[32] = species on record: Homo sapiens; assay: Inhibition of PI3K/Akt activation in human U87 cells assessed as decrease in Bcl-2 protein expression after 72 hrs by Western blot method; format: cell-based
[33] = Induction of apoptosis in human U87 cells assessed as late apoptotic cells at 1 nM measured after 72 hrs by Annexin V-APC/7-AAD staining based flow cytometry (reference value: 3.02%); format: functional, U-87MG ATCC
[34] = Induction of apoptosis in human U87 cells assessed as necrotic cells at 1 nM measured after 72 hrs by Annexin V-APC/7-AAD staining based flow cytometry (reference value: 0.44%); format: functional, U-87MG ATCC
[35] = test system: H22; assay: Antitumor activity against […] cells xenografted in ICR mouse assessed as tumor growth inhibition at 60 mg/kg, iv qd for 3 weeks relative to control; format: functional; conditions: 504 h, read-out: TGI
[36] = Induction of apoptosis in human U87 cells assessed as necrotic cells at 2 nM measured after 72 hrs by Annexin V-APC/7-AAD staining based flow cytometry (reference value: 0.44%); format: functional, U-87MG ATCC

Sequence of RAC-alpha serine/threonine-protein kinase (Homo sapiens) (P31749 whole entry): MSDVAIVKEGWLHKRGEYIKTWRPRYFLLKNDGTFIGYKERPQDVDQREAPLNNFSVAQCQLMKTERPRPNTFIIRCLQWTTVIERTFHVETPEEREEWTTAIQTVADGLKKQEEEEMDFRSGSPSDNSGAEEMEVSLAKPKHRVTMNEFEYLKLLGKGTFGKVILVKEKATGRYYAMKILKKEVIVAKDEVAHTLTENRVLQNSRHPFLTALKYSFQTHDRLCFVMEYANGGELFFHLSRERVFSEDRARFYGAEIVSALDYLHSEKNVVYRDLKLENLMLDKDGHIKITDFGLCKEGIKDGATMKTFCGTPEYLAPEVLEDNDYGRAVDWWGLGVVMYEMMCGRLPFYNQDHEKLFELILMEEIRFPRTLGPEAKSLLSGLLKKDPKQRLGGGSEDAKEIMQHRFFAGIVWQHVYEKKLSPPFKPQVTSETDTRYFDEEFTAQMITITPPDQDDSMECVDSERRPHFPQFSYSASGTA

IC50 [2]: 8.86 µM
IC50 [3]: 7.78 µM
SMILES: C=C[C@]1(C)CC[C@@H](C(=C)COC(=O)CCNC(=O)CCC(=O)OCCCCOc2no[n+]([O-])c2S(=O)(=O)c2ccccc2)C[C@H]1C(=C)C
IC50 [1]: 0.058 µM

SMILES: O=C(O)CCC(=O)OCCOc1c(S(=O)(=O)c2ccccc2)no[n+]1[O-]
IC50 [1]: 32.2 µM

IC50 [2]: 4.25 µM
IC50 [3]: 3.66 µM
SMILES: C=C[C@]1(C)CC[C@@H](C(=C)COC(=O)[C@@H](NC(=O)CCC(=O)OCCCCOc2no[n+]([O-])c2S(=O)(=O)c2ccccc2)[C@@H](C)CC)C[C@H]1C(=C)C
IC50 [1]: 0.01 µM
Activity [4]: Active

IC50 [2]: 4.94 µM
inhibition [21]: Dose-dependent effect
IC50 [3]: 3.18 µM
SMILES: C=C[C@]1(C)CC[C@@H](C(=C)COC(=O)CCC(=O)OCCOc2no[n+]([O-])c2S(=O)(=O)c2ccccc2)C[C@H]1C(=C)C
IC50 [1]: 0.002 µM
Activity [5]: 50.4%
Activity [6]: 34.97%
IC50 [7]: 30.4 µM
Activity [8]: 33.35%
inhibition in vivo at 30 mg/kg [9]: 50.2%
Activity [10]: 26.96%
Activity [4]: Active
inhibition [11]: Dose-dependent effect
Activity [12]: 26.69%
Activity [13]: 1.25%
Activity [14]: 31.68%
Activity [15]: 34.63%
Activity [16]: 25.04%
Activity [17]: 21.6 g
inhibition [18]: Dose-dependent effect
Activity [19]: 20.9 g
Activity [20]: 22.91%
Activity [22]: 25.03%
Activity [23]: 47.99%
viability at 0.0005 µM [24]: 80.4%
Activity [25]: 10.16%
viability at 0.001 µM [26]: 64.9%
Activity [27]: 8.16%
viability at 0.002 µM [28]: 46%
Activity [29]: 19.07%
TGI [30]: Dose-dependent effect
Activity [31]: Dose-dependent effect
inhibition [32]: Dose-dependent effect
Activity [33]: 9.91%
Activity [34]: 0.19%
inhibition in vivo at 60 mg/kg [35]: 64.8%
Activity [36]: 0.25%

IC50 [2]: 10.8 µM
IC50 [3]: 9.97 µM
SMILES: C=C[C@]1(C)CC[C@@H](C(=C)COC(=O)[C@H](Cc2ccccc2)NC(=O)CCC(=O)OCCCCOc2no[n+]([O-])c2S(=O)(=O)c2ccccc2)C[C@H]1C(=C)C
IC50 [1]: 0.061 µM

IC50 [2]: 10.9 µM
IC50 [3]: 8.76 µM
SMILES: C=C[C@]1(C)CC[C@@H](C(=C)COC(=O)CCC(=O)OCCCCOc2no[n+]([O-])c2S(=O)(=O)c2ccccc2)C[C@H]1C(=C)C
IC50 [1]: 0.007 µM

IC50 [2]: 10.2 µM
IC50 [3]: 15.3 µM
SMILES: C=C[C@]1(C)CC[C@@H](C(=C)COC(=O)CNC(=O)CCC(=O)OCCCCOc2no[n+]([O-])c2S(=O)(=O)c2ccccc2)C[C@H]1C(=C)C
IC50 [1]: 0.173 µM

IC50 [2]: 5.78 µM
IC50 [3]: 4.66 µM
SMILES: C=C[C@]1(C)CC[C@@H](C(=C)COC(=O)CCC(=O)OCCOCCOc2no[n+]([O-])c2S(=O)(=O)c2ccccc2)C[C@H]1C(=C)C
IC50 [1]: 0.024 µM

IC50 [2]: 10.9 µM
IC50 [3]: 11.8 µM
SMILES: C=C[C@]1(C)CC[C@@H](C(=C)COC(=O)[C@H](C)NC(=O)CCC(=O)OCCCCOc2no[n+]([O-])c2S(=O)(=O)c2ccccc2)C[C@H]1C(=C)C
IC50 [1]: 0.114 µM

SMILES: C=C[C@]1(C)CC[C@@H](C(=C)CO)C[C@H]1C(=C)C
IC50 [1]: 198 µM

IC50 [2]: 3.64 µM
IC50 [3]: 2.92 µM
SMILES: C=C[C@]1(C)CC[C@@H](C(=C)COC(=O)[C@@H](N)CC(=O)OCCCCOc2no[n+]([O-])c2S(=O)(=O)c2ccccc2)C[C@H]1C(=C)C
IC50 [1]: 0.124 µM
Activity [4]: Active

IC50 [2]: 11.2 µM
IC50 [3]: 9.49 µM
SMILES: C=C[C@]1(C)CC[C@@H](C(=C)COC(=O)[C@@H]2CCCN2C(=O)CCC(=O)OCCCCOc2no[n+]([O-])c2S(=O)(=O)c2ccccc2)C[C@H]1C(=C)C
IC50 [1]: 0.055 µM

IC50 [2]: 21.9 µM
IC50 [3]: 27.8 µM
SMILES: C=C[C@]1(C)CC[C@@H](C(=C)COC(=O)c2ccccc2C(=O)OCCCCOc2no[n+]([O-])c2S(=O)(=O)c2ccccc2)C[C@H]1C(=C)C
IC50 [1]: 0.081 µM
Activity [4]: inactive

IC50 [2]: 214 µM
IC50 [3]: 236 µM
SMILES: C=C[C@]1(C)CC[C@@H](C(=C)C)C[C@H]1C(=C)C
IC50 [1]: 180 µM
Activity [19]: 20 g
inhibition in vivo at 60 mg/kg [35]: 49.6%

IC50 [2]: 23.2 µM
IC50 [3]: 22.9 µM
SMILES: C=C[C@]1(C)CC[C@@H](C(=C)COC(=O)CCC(=O)OCCCCCCOc2no[n+]([O-])c2S(=O)(=O)c2ccccc2)C[C@H]1C(=C)C
IC50 [1]: 0.154 µM
Activity [4]: inactive

IC50 [2]: 3.78 µM
IC50 [3]: 4.97 µM
SMILES: C=C[C@]1(C)CC[C@@H](C(=C)COC(=O)CCC(=O)OCC#CCOc2no[n+]([O-])c2S(=O)(=O)c2ccccc2)C[C@H]1C(=C)C
IC50 [1]: 0.085 µM
